Measurements: US9416129B2, “Tricyclic substituted thiadiazine dioxide compounds as BACE inhibitors, compositions and their use” (Merck Sharp & Dohme Corp., priority 2012, dated 2016)

How the values were obtained:
[1] = biological target: soluble human BACE1 catalytic domain (Homo sapiens (Human), UniProt P56817); assay: BACE1 HTRF FRET assay; format: biochemical; conditions: Ki calculated from IC50 using the Cheng-Prusoff equation
From the text: Na^+-Acetate pH 5.0; 1% Brij-35; Glycerol; Dimethyl Sulfoxide (DMSO); Recombinant human soluble BACE1 catalytic domain (>95% pure); APP Swedish mutant peptide substrate (QSY7-APP^swe-Eu): QSY7-[…]-Europium-amide.
A homogeneous time-resolved FRET assay can be used to determine IC50 values for inhibitors of the soluble human BACE1 catalytic domain. This assay monitors the increase of 620 nm fluorescence that resulted from BACE1 cleavage of an APPswedish APP^swe mutant peptide FRET substrate (QSY7-[…]-Europium-amide). This substrate contains an N-terminal QSY7 moiety that serves as a quencher of the C-terminal Europium fluorophore (620 nm Em). In the absence of enzyme activity, 620 nm fluorescence is low in the assay and increased linearly over 3 hours in the presence of uninhibited BACE1 enzyme Inhibition of BACE1 cleavage of the QSY7-APP^swe-Eu substrate by inhibitors is manifested as a suppression of 620 nm fluorescence.
Varying concentrations of inhibitors at 3× the final desired concentration in a volume of 10 ul are preincubated with purified human BACE1 catalytic domain (3 nM in 10 μl) for 30 minutes at 30° C. in reaction buffer containing 20 mM Na-Acetate pH 5.0, 10% glycerol, 0.1% Brij-35 and 7.5% DSMO. Reactions are initiated by addition of 10 μl of 600 nM QSY7-APP^swe-Eu substrate (200 nM final) to give a final reaction volume of […] in a 384 well Nunc HTRF plate. The reactions are incubated at 30° C. for 1.5 hours. The 620 nm fluorescence is then read on a Rubystar HTRF plate reader (BMG Labtechnologies) using a 50 millisecond delay followed by a 400 millisecond acquisition time window. Inhibitor IC50 values are derived from non-linear regression analysis of concentration response curves.

human autoBACE-2 = human autoBACE-2 (Homo sapiens (Human), UniProt Q9Y5Z0); assay: BACE-2 assay (BACE-HTRF, time-resolved endpoint proteolysis); format: biochemical; conditions: Ki calculated from IC50 using the Cheng-Prusoff equation; read-out: BACE2 Ki
Chain of human autoBACE-2 (Q9Y5Z0 63-473 limits assumed): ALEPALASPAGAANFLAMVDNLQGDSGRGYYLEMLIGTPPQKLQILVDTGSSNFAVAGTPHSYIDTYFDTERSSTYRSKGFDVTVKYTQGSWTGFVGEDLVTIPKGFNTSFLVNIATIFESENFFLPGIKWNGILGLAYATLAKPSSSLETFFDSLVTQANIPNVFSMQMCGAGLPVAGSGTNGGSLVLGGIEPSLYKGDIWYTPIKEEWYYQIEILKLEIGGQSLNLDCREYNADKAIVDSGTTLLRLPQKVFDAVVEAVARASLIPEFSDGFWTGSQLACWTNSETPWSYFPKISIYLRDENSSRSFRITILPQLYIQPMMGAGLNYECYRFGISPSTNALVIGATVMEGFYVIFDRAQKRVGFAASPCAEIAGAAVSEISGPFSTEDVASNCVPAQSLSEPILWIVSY
Description: Inhibitor IC50s at purified human autoBACE-2 are determined in a time-resolved endpoint proteolysis assay that measures hydrolysis of the QSY7-[…]-Eu-amide FRET peptide substrate (BACE-HTRF assay). […] DMSO is present at 5% final concentration in the assay. Following laser excitation of sample wells at 320 nm, the fluorescence signal at 620 nm is collected for 400 ms following a 50 μs delay on a RUBYstar HTRF plate reader (BMG Labtechnologies). Raw RFU data is normalized to maximum (1.0 nM BACE/DMSO) and minimum (no enzyme/DMSO) RFU values. […] The Ki values are calculated from the IC50 using the Cheng-Prusoff equation.

human P-glycoprotein = human P-glycoprotein (Homo sapiens (Human), UniProt P08183); assay: Pgp Mdr1 efflux ratio; format: in vitro ADME; conditions: efflux ratio, human P-glycoprotein
Chain of human P-glycoprotein (P08183 whole entry): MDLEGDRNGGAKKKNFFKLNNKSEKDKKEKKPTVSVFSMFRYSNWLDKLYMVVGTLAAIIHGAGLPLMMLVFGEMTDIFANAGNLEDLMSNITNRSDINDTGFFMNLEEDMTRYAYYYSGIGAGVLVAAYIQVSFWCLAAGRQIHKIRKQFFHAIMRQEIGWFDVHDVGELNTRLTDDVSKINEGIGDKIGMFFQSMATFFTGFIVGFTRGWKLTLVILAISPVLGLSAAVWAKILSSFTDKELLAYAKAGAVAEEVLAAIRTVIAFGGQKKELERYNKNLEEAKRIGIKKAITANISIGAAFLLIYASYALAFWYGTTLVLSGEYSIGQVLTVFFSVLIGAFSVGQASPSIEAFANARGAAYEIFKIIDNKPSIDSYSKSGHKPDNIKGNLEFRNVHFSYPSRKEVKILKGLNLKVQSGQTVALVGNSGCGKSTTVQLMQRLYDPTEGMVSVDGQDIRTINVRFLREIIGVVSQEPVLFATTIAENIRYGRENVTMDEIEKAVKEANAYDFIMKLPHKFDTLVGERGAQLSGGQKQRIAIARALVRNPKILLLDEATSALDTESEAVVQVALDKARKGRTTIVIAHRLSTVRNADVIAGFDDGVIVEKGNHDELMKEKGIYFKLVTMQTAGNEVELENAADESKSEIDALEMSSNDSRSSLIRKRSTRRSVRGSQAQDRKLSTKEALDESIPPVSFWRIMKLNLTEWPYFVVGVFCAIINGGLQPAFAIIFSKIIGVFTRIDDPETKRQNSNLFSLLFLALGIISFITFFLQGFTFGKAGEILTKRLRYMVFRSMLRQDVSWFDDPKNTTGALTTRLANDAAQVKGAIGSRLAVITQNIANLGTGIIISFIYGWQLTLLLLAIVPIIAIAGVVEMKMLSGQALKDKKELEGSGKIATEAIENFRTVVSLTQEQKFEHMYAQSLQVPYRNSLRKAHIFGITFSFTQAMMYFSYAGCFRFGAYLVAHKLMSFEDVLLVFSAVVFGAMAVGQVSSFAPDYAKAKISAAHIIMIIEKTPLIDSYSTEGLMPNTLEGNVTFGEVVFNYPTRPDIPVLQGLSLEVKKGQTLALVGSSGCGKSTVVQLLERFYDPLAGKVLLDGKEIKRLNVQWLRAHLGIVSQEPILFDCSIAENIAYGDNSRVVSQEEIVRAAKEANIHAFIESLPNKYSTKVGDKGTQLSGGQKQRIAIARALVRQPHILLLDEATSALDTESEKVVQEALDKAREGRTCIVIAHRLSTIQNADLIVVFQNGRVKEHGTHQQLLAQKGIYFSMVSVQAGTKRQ

Chain of soluble human BACE1 catalytic domain (P56817 75-416): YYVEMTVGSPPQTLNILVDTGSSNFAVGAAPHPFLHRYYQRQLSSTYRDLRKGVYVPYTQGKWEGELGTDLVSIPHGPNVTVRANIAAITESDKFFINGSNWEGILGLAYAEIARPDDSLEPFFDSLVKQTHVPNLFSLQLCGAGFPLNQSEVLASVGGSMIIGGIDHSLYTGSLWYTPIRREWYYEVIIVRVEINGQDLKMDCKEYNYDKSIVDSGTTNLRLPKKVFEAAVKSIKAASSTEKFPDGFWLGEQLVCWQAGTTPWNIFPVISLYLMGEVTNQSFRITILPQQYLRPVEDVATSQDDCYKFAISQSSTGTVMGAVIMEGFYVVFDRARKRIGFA

Row | Structure (SMILES) | Ki [1] | Ki (human autoBACE-2) | Pgp Mdr1 ER (human P-glycoprotein)
1 | CN1C(=N)N[C@](C)(c2sc(-c3cccc(-c4ccno4)c3)cc2F)CS1(=O)=O [Example 14] | 6.9 nM | 3.5 nM | 1.6
2 | CN1C(=N)N[C@](C)(c2sc(-c3cc(F)cc(-c4nnco4)c3)cc2Cl)CS1(=O)=O [Example 28] | 0.5 nM | 0.28 nM | –
3 | CN1C(=N)N[C@](C)(c2sc(-c3cccc(-c4nc(C5CC5)no4)c3)cc2Cl)CS1(=O)=O [Example 39] | 419 nM | 9.9 nM | –
4 | CN1C(=N)N[C@](C)(c2sc(-c3cncc(-c4nnco4)c3)cc2F)CS1(=O)=O [Example 3] | 7.5 nM | 25.9 nM | –
5 | CN1C(=N)N[C@](C)(c2sc3c(-c4ccc(-c5ccncc5)cc4)cccc3c2F)CS1(=O)=O [Example 84] | 351 nM | 764 nM | –
6 | CN1C(=N)N[C@](C)(c2sc(-c3ccnc(-c4cnco4)c3)cc2F)CS1(=O)=O [Example 56] | 23.5 nM | 20 nM | –
7 | CN1C(=N)N[C@](C)(c2sc(-c3cc(-c4nnco4)ncc3F)cc2Cl)CS1(=O)=O [Example 58] | 68.3 nM | 66 nM | –
8 | CN1C(=N)N[C@](C)(c2sc(-c3ccc(F)c(-c4nnco4)c3)cc2Cl)CS1(=O)=O [Example 33] | 5.5 nM | 10 nM | –
9 | Cc1nnc(-c2cccc(-c3cc(F)c([C@]4(C)CS(=O)(=O)N(C)C(=N)N4)s3)c2)o1 [Example 16] | 232 nM | 4.2 nM | –
10 | CN1C(=N)N[C@](C)(c2sc(-c3cccc(-n4cccn4)c3)cc2Cl)CS1(=O)=O [Example 60] | 57 nM | 1.6 nM | –
11 | CN1C(=N)N[C@](C)(c2sc(-c3cccc(-c4nnco4)c3)cc2Cl)CS1(=O)=O [Example 1] | 1.6 nM | 6 nM | –
12 | CN1C(=N)N[C@](C)(c2sc(-c3cc(-c4nnco4)ncc3F)cc2F)CS1(=O)=O [Example 59] | 107 nM | 92 nM | –
13 | CN1C(=N)N[C@](C)(c2sc(-c3cncc(-c4ncco4)c3)cc2Cl)CS1(=O)=O [Example 9] | 6.9 nM | 0.31 nM | –
14 | CN1C(=N)N[C@](C)(c2sc(-c3ccc(-c4ccccn4)cc3)cc2Cl)CS1(=O)=O [Example 65] | 3520 nM | 1610 nM | –
15 | CN1C(=N)N[C@](C)(c2sc3c(-c4ccc(C5CC(=O)N5)cc4)cccc3c2F)CS1(=O)=O (stereo partly shown) [Example 81] | 184 nM | 1720 nM | –
16 | CN1C(=N)N[C@](C)(c2sc(-c3ccc(-n4ccnn4)cc3)cc2Cl)CS1(=O)=O [Example 71] | 1600 nM | 654 nM | –
17 | CN1C(=N)N[C@](C)(c2sc(-c3ccnc(-n4ccnc4)c3)cc2F)CS1(=O)=O [Example 76] | 112 nM | 52 nM | –
18 | CN1C(=N)N[C@](C)(c2sc(-c3cccc(-c4nnco4)c3F)cc2F)CS1(=O)=O [Example 36] | 1150 nM | 247 nM | –
19 | CN1C(=N)N[C@](C)(c2sc(-c3ccnc(-c4cccnc4)c3)cc2F)CS1(=O)=O [Example 74] | 199 nM | 122 nM | –
20 | Cc1noc(-c2cc(-c3cc(Cl)c([C@]4(C)CS(=O)(=O)N(C)C(=N)N4)s3)ccn2)n1 [Example 49] | 18.7 nM | 1.1 nM | –
21 | CN1C(=N)N[C@](C)(c2sc(-c3cc(-c4nnco4)ccc3F)cc2Cl)CS1(=O)=O [Example 31] | 1.7 nM | 4.2 nM | –
22 | CN1C(=N)N[C@](C)(c2sc(-c3cccc(-c4ccno4)c3)cc2Cl)CS1(=O)=O [Example 13] | 6.5 nM | 2.4 nM | –
23 | Cc1noc(-c2cc(-c3cc(F)c([C@]4(C)CS(=O)(=O)N(C)C(=N)N4)s3)ccn2)n1 [Example 50] | 56.3 nM | 2.3 nM | –
24 | CN1C(=N)N[C@](C)(c2cc(-c3cc(F)cc(-c4cnco4)c3)cs2)CS1(=O)=O [Example 24] | 81 nM | 18 nM | –
25 | Cc1noc(-c2cccc(-c3cc(Cl)c([C@]4(C)CS(=O)(=O)N(C)C(=N)N4)s3)c2)n1 [Example 37] | 25.9 nM | 4.6 nM | –
26 | CN1C(=N)N[C@](C)(c2sc(-c3cccc(-c4cc[nH]n4)c3)cc2F)CS1(=O)=O [Example 4] | 10.7 nM | 0.35 nM | –
27 | CN1C(=N)N[C@](C)(c2sc(-c3ccc(-c4nccs4)cc3)cc2Cl)CS1(=O)=O [Example 70] | 827 nM | 174 nM | –
28 | CN1C(=N)N[C@](C)(c2sc(-c3cccc(-c4nc(C5CC5)no4)c3)cc2F)CS1(=O)=O [Example 40] | 623 nM | 9.5 nM | –
29 | Cc1cnn(-c2cc(-c3cc(F)c([C@]4(C)CS(=O)(=O)N(C)C(=N)N4)s3)ccn2)c1 [Example 75] | 2780 nM | 2530 nM | –
30 | CN1C(=N)N[C@](C)(c2sc(-c3cncc(-c4cnco4)c3)cc2Cl)CS1(=O)=O [Example 20] | 11.9 nM | 8.9 nM | –

Second part, the molecule after the results:

Row | Ki [1] | Ki (human autoBACE-2) | Pgp Mdr1 ER (human P-glycoprotein) | Structure (SMILES)
31 | 1660 nM | 1660 nM | – | CN1C(=N)N[C@](C)(c2sc3c(-c4ccc(-n5nccn5)cc4)cccc3c2F)CS1(=O)=O [Example 92]
32 | 224 nM | 855 nM | – | CN1C(=N)N[C@](C)(c2sc3c(-c4ccc(-n5nccn5)cc4)nccc3c2Cl)CS1(=O)=O [Example 99]
33 | 86.1 nM | 36 nM | – | CN1C(=N)N[C@](C)(c2sc3c(-c4ccc(-n5ccnn5)cc4)nccc3c2Cl)CS1(=O)=O [Example 104]
34 | 291 nM | 218 nM | – | CN1C(=N)N[C@](C)(c2sc3c(-c4ccc(-c5cnn(C)c5)cc4F)nccc3c2Cl)CS1(=O)=O [Example 112]
35 | 797 nM | 1350 nM | – | CN1C(=N)N[C@](C)(c2sc3c(-c4ccc(-c5nccs5)cc4)cccc3c2F)CS1(=O)=O [Example 91]
36 | 1860 nM | 1260 nM | – | COc1ccnc(N2CCN(c3nccc4c(Cl)c([C@]5(C)CS(=O)(=O)N(C)C(=N)N5)sc34)CC2)c1 [Example 121]
37 | 189 nM | 417 nM | – | Cc1cnn(-c2ccc(-c3nccc4c(Cl)c([C@]5(C)CS(=O)(=O)N(C)C(=N)N5)sc34)c(F)c2)c1 [Example 119]
38 | 425 nM | 6.7 nM | – | CN1C(=N)N[C@](C)(c2sc3c(-c4ccc(-c5cc(C(F)(F)F)n[nH]5)cc4)nccc3c2Cl)CS1(=O)=O [Example 98]
39 | 1500 nM | 9520 nM | – | CN1C(=N)N[C@](C)(c2sc3c(-c4ccc(N5CCOCC5)nc4)cccc3c2F)CS1(=O)=O [Example 94]
40 | 17.7 nM | 267 nM | – | COc1cnn(-c2ccc(-c3nccc4c(Cl)c([C@]5(C)CS(=O)(=O)N(C)C(=N)N5)sc34)c(F)c2)c1 [Example 115]
41 | 270 nM | 1640 nM | – | CN1C(=N)N[C@](C)(c2sc3c(-c4ccc(-c5nccs5)cc4)nccc3c2Cl)CS1(=O)=O [Example 106]
42 | 37 nM | 68 nM | – | CN1C(=N)N[C@](C)(c2sc3c(-c4ccc(-n5cccn5)cc4)cccc3c2F)CS1(=O)=O [Example 89]
43 | 29.9 nM | 959 nM | – | CN1C(=N)N[C@](C)(c2sc3c(-c4ccc(-n5cccn5)cc4)nccc3c2Cl)CS1(=O)=O [Example 102]
44 | 104 nM | 214 nM | – | CN1C(=N)N[C@](C)(c2sc3c(-c4ccc(-c5ncco5)cc4)cccc3c2F)CS1(=O)=O [Example 90]
45 | 35.2 nM | 19 nM | – | CN1C(=N)N[C@](C)(c2sc3c(-c4ccc(-c5cnco5)cc4F)nccc3c2Cl)CS1(=O)=O [Example 108]
46 | 229 nM | 702 nM | – | CCc1cnn(-c2ccc(-c3nccc4c(Cl)c([C@]5(C)CS(=O)(=O)N(C)C(=N)N5)sc34)c(F)c2)c1 [Example 118]
47 | 9140 nM | 3840 nM | – | Cc1cnc(-c2ccc(-c3cccc4c(F)c([C@]5(C)CS(=O)(=O)N(C)C(=N)N5)sc34)cc2)nc1 [Example 88]
48 | 327 nM | 9520 nM | – | CN1C(=N)N[C@](C)(c2sc3c(-c4ccc(C5CC5)nc4)cccc3c2F)CS1(=O)=O [Example 96]
49 | 116 nM | 224 nM | – | CN1C(=N)N[C@](C)(c2sc3c(-c4ccc(-c5ncco5)cc4)nccc3c2Cl)CS1(=O)=O [Example 100]
50 | 5620 nM | 3300 nM | – | CN1C(=N)N[C@](C)(c2sc3c(-c4ccc(-c5nccn5C)cc4)cccc3c2F)CS1(=O)=O [Example 86]
51 | 197 nM | 27 nM | – | CN1C(=N)N[C@](C)(c2sc3c(-c4ccc(-c5ccnn5C)cc4F)nccc3c2Cl)CS1(=O)=O [Example 111]
